For series [1], the system named is Methicillin resistant S. aureus (MRSA) USA300. Put plainly: Antibacterial MIC assay, serial dilution. It is filed as cell-based, Staphylococcus aureus. The conditions noted are these: for Selectivity index (CC50/MIC) MRSA USA300: CC50 Vero cells / MIC; for MIC: Staphylococcus aureus, read-out: MIC Methicillin resistant S. aureus (MRSA) USA300.
Series [2] relates to MRSA USA-300. It is filed as cell-based, Staphylococcus aureus. The conditions noted are these: for log reduction in time-kill assay: after 24 h. How it is done: MRSA USA-300 was grown overnight in cation- adjusted Muell er-Hinton broth (CAMHB), then subcultured into fresh CAMHB and incubated aerobi cally at 37°C until reaching the logarithmic phase, corresponding to an optical density (OD₆₀₀) of 0.2. The bacterial cultures were further diluted to adjust to a final concentration of 5 × 10⁵ CFU/mL in CAMHB. P3, P5, vancomycin and linezolid, were added at concentrations of 5× and 10× MIC. A DMSO-treated […]
culture serv ed as an untreated control. The cultures were aerobically maintai ned at 37°C in shaking incubator. At specifi c sampling times, aliquots were collected, resuspended in phosphate-buffered saline (PBS) and distributed to three replicates on tryptic soy agar (TSA). After a 24-hour incubation period at 37°C, the number of colony- forming units (CFUs) was evaluated.
F i g u re S 1. Time kill results against MRSA USA 300 at 5X and 10X MIC. Compound P3 ( 38) is shown as red squares, compound P5( 40) is shown as green tri angles. Vancomycin (inverted purple triangle) is used as a b act ericidal control and linezolid (orange diamond) as a bacteriostatic control with DMSO (blue circles ) as a neg ative control. […]

In series [3] the test system is Acinetobacter baumannii ATCC 17978. The series can be described thus: Antibacterial MIC assay, serial dilution. The conditions noted are these: ATCC17978, range from biological replicates. The series is classed as cell-based. The procedure, abridged:
(§1)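 Broth microdilution in cation-adjusted Mueller-Hinton broth, inoculum diluted to OD600 0.004 from cultures grown to OD600 ~0.5; compounds tested at final 128–1 μg/mL. Plates incubated at 37 °C for 16–18 h, 24 h for VRE. MIC was the lowest concentration giving >90% growth inhibition by OD600.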

In series [4] the test system is Enterococcus faecalis ATCC 29212. Put plainly: Antibacterial MIC assay, serial dilution. It is filed as cell-based. Conditions: for Selectivity index (CC50/MIC) E. faecalis 29212: CC50 Vero cells / MIC; for MIC: Enterococcus faecalis, ATCC 29112 / ATCC 29212, 24 h, read-out: MIC E. faecalis ATCC 29112.
Series [5] concerns Vancomycin resistant Enterococcus faecium NR-31909 (VRE). The series can be described thus: Antibacterial MIC assay, serial dilution. The series is classed as cell-based. The conditions noted are these: for Selectivity index (CC50/MIC) VRE NR-31909: CC50 Vero cells / MIC; for MIC: Enterococcus faecium, VRE, 24 h, read-out: MIC Vancomycin resistant Enterococcus faecium NR-31909 (VRE). The procedure, abridged: as §1

The test system of series [6] is Pseudomonas aeruginosa. Put plainly: Antibacterial MIC assay, serial dilution. The series is classed as cell-based. The conditions noted are these: for MIC: Pseudomonas aeruginosa, range from biological replicates, read-out: MIC P. aeruginosa. The procedure, abridged:
as §1

Series [7] relates to Klebsiella pneumoniae ATCC 29665. The series can be described thus: Antibacterial MIC assay, serial dilution. The series is classed as cell-based. The conditions noted are these: for MIC: Klebsiella pneumoniae, ATCC29665, range from biological replicates, read-out: MIC K. pneumoniae ATCC-29665. The essentials: as §1
In series [8] the test system is S. aureus ΔNorA. Put plainly: Antibacterial MIC assay, serial dilution. Conditions: for Selectivity index (CC50/MIC) S. aureus ΔNorA: CC50 Vero cells / MIC; for MIC: Staphylococcus aureus, read-out: MIC S. aureus ∆NorA. The series is classed as cell-based, Staphylococcus aureus. The procedure, abridged: as §1
In series [9] the test system is S. aureus ATCC 6538P. The series can be described thus: Antibacterial MIC assay, serial dilution. The conditions noted are these: for Selectivity index (CC50/MIC) S. aureus 6538P: CC50 Vero cells / MIC; for MIC: Staphylococcus aureus, ATCC 6538P / ATCC 6539P, read-out: MIC S. aureus ATCC 6539P. The series is classed as cell-based, Staphylococcus aureus. The procedure, abridged:
as §1

Series [10] has as its system MRSA ATCC 43300. Put plainly: Antibacterial MIC assay, serial dilution. It is filed as cell-based, Staphylococcus aureus. The conditions noted are these: for Selectivity index (CC50/MIC) MRSA 43300: CC50 Vero cells / MIC; for MIC: Staphylococcus aureus, read-out: MIC MRSA ATCC 43300. The procedure, abridged: as §1
Series [11] can be described thus: Cytotoxicity assay (MTS/PMS). The series is classed as cell-based. The conditions noted are these: monkey, Vero cells (monkey kidney epithelial cells); 24 h treatment, MTS/PMS, average of three biological replicates; read-out: CC50 against Vero cells. The procedure, abridged: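 Vero cells were allowed to adhere for 24 h in DMEM with 10% FBS at 37 °C, then exposed to serial compound dilutions for 24 h. Viability was measured by MTS/PMS (4 h, absorbance at 490 nm) and normalized to vehicle. CC50 is the concentration giving 50% viability, averaged over three biological replicates.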

For series [12], the system named is Escherichia coli BAA-2452. The series can be described thus: Antibacterial MIC assay, serial dilution. It is filed as cell-based. Conditions: BAA2452, read-out: MIC Escherichia coli BAA-2452.

Converted amounts (≈) assume the structure as drawn. Read-outs that look alike come from different tables or passages of the source. Where only a bound is given, the exact number is not on record here.

The MIC is the smallest concentration in the dilution series that meets the test's criterion for growth inhibition. The term CC50 denotes the concentration giving 50% cytotoxicity. As for `CNc1ccc(C(=O)Nc2ccn([C@H]3C=C[C@H](NC(=O)C[C@@H](N)CCN(C)C(=N)N)[C@@H](C(=O)NCCc4ccccc4)O3)c(=O)n2)cc1` [Blastimidine P3], the “Selectivity index (CC50/MIC) MRSA USA300” value in series [1] is reported as >8.0. For the same molecule, the MIC in [1] was 32 µg/mL (≈ 48.6 µM); in series [3], > 128 µg/mL; in [4], 8 to 16 µg/mL (≈ 12.1 to 24.3 µM); in series [5], 128 µg/mL (≈ 194 µM); in [6], 64 to 128 µg/mL (≈ 97.2 to 194 µM); in series [7], > 128 µg/mL. The MIC in series [8] is 4 to 8 µg/mL (≈ 6.07 to 12.1 µM); in series [9], 16 to 32 µg/mL (≈ 24.3 to 48.6 µM); in series [10], 64 to 128 µg/mL (≈ 97.2 to 194 µM); in series [12], 64 µg/mL (≈ 97.2 µM). Further, the “bacteriostatic or bactericidal effect in time-kill assay” value in series [2] (5× MIC and 10× MIC) is recorded as “bacteriostatic activity”. The “log reduction in time-kill assay” value was 2.5 log in series [2] (5× MIC) and 2.7 log in series [2] (10× MIC). The “Selectivity index (CC50/MIC) E. faecalis 29212” value in [4] is given as >24. In series [5], the “Selectivity index (CC50/MIC) VRE NR-31909” value is >2.0. The “Selectivity index (CC50/MIC) P. aeruginosa” value in series [6] (CC50 Vero cells / MIC) is >3.0. Also, the “Selectivity index (CC50/MIC) S. aureus ΔNorA” value in series [8] is >48. Besides, the “Selectivity index (CC50/MIC) S. aureus 6538P” value in series [9] is given as >12. Also, the “Selectivity index (CC50/MIC) MRSA 43300” value in [10] is >3.0. Moreover, in [11], the 50% cytotoxic concentration (CC50) at 24 h is > 256 µg/mL.
For `CN(CC[C@H](N)CC(=O)N[C@H]1C=C[C@H](n2ccc(NC(=O)c3ccc(NC(=O)[C@@](C)(N)CO)cc3)nc2=O)O[C@@H]1C(=O)NCCc1ccccc1)C(=N)N` [Blastimidine P5], in series [1], the “Selectivity index (CC50/MIC) MRSA USA300” value is listed as >16. Also, the MIC in series [1] was 16 µg/mL (≈ 21.5 µM); in series [3], > 128 µg/mL; in [4], 32 µg/mL (≈ 42.9 µM); in [5], 16 to 32 µg/mL (≈ 21.5 to 42.9 µM); in series [6], > 128 µg/mL; in series [7] it was 64 to 128 µg/mL (≈ 85.8 to 172 µM). Moreover, the MIC stood at 16 µg/mL (≈ 21.5 µM) in series [8], 16 µg/mL (≈ 21.5 µM) in [9], 32 µg/mL (≈ 42.9 µM) in series [10] and 128 µg/mL (≈ 172 µM) in series [12]. Further, the “bacteriostatic or bactericidal effect in time-kill assay” value in series [2] (5× MIC and 10× MIC) is given as “bactericidal activity”. The “clearance in time-kill assay” value in series [2] (5× MIC and 10× MIC, within 24 h) is “complete clearance”. In addition, the “Selectivity index (CC50/MIC) E. faecalis 29212” value in [4] is given as >8.0. Also, the “Selectivity index (CC50/MIC) VRE NR-31909” value in series [5] is reported as >11. The “Selectivity index (CC50/MIC) K. pneumoniae” value in series [7] (CC50 Vero cells / MIC) was >3.0. Besides, the “Selectivity index (CC50/MIC) S. aureus ΔNorA” value in [8] was >16. Further, in [9], the “Selectivity index (CC50/MIC) S. aureus 6538P” value is >16. For the same molecule, in [10], the “Selectivity index (CC50/MIC) MRSA 43300” value is listed as >8.0. Further, the CC50 at 24 h in [11] is > 256 µg/mL.

For the origin of these results see paper PMC12856912, “Structure-Guided Semisynthesis of Blasticidin S–Amicetin Chimeras as Selective Ribosome Inhibitors” (Journal of the American Chemical Society, 2026).
